The compounds below were run against IDH1 R132H (Homo sapiens, UniProt O75874, R132H) (assay: High Throughput Screening (HTS) for IDH1 R132H inhibitors (resazurin/NADPH fluorescence assay)). Conditions: IDH1m; assay similar to Example 1; class symbols.
Type: biochemical
Protocol: A compound described herein may be an inhibitor of IDH1m. […] B refers to an inhibitor of IDH1m with an IC50 between 1 μM and 50 μM. C refers to an inhibitor of IDH1m with an IC50 greater than 50 μM. D refers to a compound wherein an IC50 is not available.
Assays were conducted in a volume of 76 μl assay buffer (150 mM NaCl, 10 mM MgCl2, 20 mM Tris pH 7.5, 0.03% bovine serum albumin) as follows in a standard 384-well plate: To 25 ul of substrate mix (8 uM NADPH, 2 mM aKG), 1 μl of test compound was added in DMSO. The plate was centrifuged briefly, and then 25 μl of enzyme mix was added (0.2 μg/ml ICDH1 R132H) followed by a brief centrifugation and shake at 100 RPM. The reaction was incubated for 50 minutes at room temperature, then 25 μl of detection mix (30 μM resazurin, […]) was added and the mixture further incubated for 5 minutes at room temperature. The conversion of resazurin to resorufine was detected by fluorescent spectroscopy at Ex544 Em590 c/o 590.

Chain of IDH1 R132H (O75874 whole entry R132H): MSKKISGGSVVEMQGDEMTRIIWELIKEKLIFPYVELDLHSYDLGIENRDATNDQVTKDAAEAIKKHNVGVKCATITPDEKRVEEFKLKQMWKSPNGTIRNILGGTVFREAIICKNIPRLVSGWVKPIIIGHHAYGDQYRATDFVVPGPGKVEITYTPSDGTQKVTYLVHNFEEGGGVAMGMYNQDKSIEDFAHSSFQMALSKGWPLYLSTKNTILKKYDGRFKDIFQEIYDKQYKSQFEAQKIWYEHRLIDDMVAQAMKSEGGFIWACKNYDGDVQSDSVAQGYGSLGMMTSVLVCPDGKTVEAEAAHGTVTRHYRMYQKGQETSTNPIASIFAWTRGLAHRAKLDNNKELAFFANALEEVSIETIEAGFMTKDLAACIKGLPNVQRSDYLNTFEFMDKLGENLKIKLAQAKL

`CCCCc1ccc(NS(=O)(=O)c2ccc(C)c(C(=O)N3CCN(c4ccccn4)CC3)c2)cc1` and `CCCCc1ccc(NS(=O)(=O)c2cccc(C(=O)N3CCN(c4ccccn4)CC3)c2)cc1` fall in the same range of IC50: 1 to 50 µM for the first, 1 to 50 µM for the second.

Compared with `CCCc1ccc(NS(=O)(=O)c2cccc(C(=O)N3CCN(c4ccccc4)CC3)c2)cc1`, `O=C(c1cccc(S(=O)(=O)Nc2ccc(Cl)cc2)c1)N1CCN(c2ccccc2)CC1` is higher in IC50: 1 to 50 µM for the first, over 50 µM for the second. The first is the more potent here.

First: Cc1ccc(S(=O)(=O)Nc2ccc(C(C)C)cc2)cc1C(=O)N1CCN(c2ccccc2)CC1
Second: Cc1ccc(S(=O)(=O)Nc2ccc(Cl)cc2)cc1C(=O)N1CCN(c2ccccc2)CC1
The IC50 of the first is lower: 1 to 50 µM for the first, over 50 µM for the second.

First: COc1ccccc1N1CCCN(C(=O)c2cccc(S(=O)(=O)Nc3ccc(C(C)C)cc3)c2)CC1
Second: CCOc1ccc(NS(=O)(=O)c2cccc(C(=O)N3CCCN(c4ccccc4OC)CC3)c2)cc1
The IC50 of the first is lower: 1 to 50 µM for the first, over 50 µM for the second.

`CCCCc1ccc(NS(=O)(=O)c2ccc(C)c(C(=O)N3CCN(c4ccncc4)CC3)c2)cc1` and `CCCCc1ccc(NS(=O)(=O)c2ccc(C)c(C(=O)N3CCN(c4ccc(F)cc4)CC3)c2)cc1` fall in the same range of IC50: 1 to 50 µM for the first, 1 to 50 µM for the second.

First: CCCCc1ccc(NS(=O)(=O)c2cccc(C(=O)N3CCN(c4ccccc4OC)CC3)c2)cc1
Second: CCCCc1ccc(NS(=O)(=O)c2ccc(C)c(C(=O)N3CCN(c4ccccc4OC)CC3)c2)cc1
The IC50 of the first is higher: 1 to 50 µM for the first, under 1 µM for the second.

First: CCCCc1ccc(NS(=O)(=O)c2ccc(C)c(C(=O)N3CCN(c4ccccc4Cl)CC3)c2)cc1
Second: CCCCc1ccc(NS(=O)(=O)c2ccc(C)c(C(=O)N3CCN(c4ccccc4C(C)C)CC3)c2)cc1
The IC50 of the first is lower: under 1 µM for the first, 1 to 50 µM for the second. The first is the more potent here.

`CCCCc1ccc(NS(=O)(=O)c2cccc(C(=O)N3CCN(c4ccncc4)CC3)c2)cc1` and `CCCCc1ccc(NS(=O)(=O)c2cccc(C(=O)N3CCN(c4ncccn4)CC3)c2)cc1` fall in the same range of IC50: 1 to 50 µM for the first, 1 to 50 µM for the second.

`COc1ccccc1N1CCN(C(=O)c2cc(S(=O)(=O)Nc3ccc(OC(C)C)cc3)ccc2C)CC1` and `COc1ccc(NS(=O)(=O)c2ccc(C)c(C(=O)N3CCN(c4ccccc4OC)CC3)c2)cc1` fall in the same range of IC50: 1 to 50 µM for the first, 1 to 50 µM for the second.

`CCCCc1ccc(NS(=O)(=O)c2ccc(C)c(C(=O)N3CCN(c4ccccc4-c4ccccc4)CC3)c2)cc1` and `CCCCc1ccc(NS(=O)(=O)c2ccc(C)c(C(=O)N3CCN(c4ccccc4Oc4ccccc4)CC3)c2)cc1` fall in the same range of IC50: 1 to 50 µM for the first, 1 to 50 µM for the second.

`COc1ccccc1N1CCN(C(=O)c2cc(S(=O)(=O)Nc3ccc(OCc4cn(Cc5ccccc5)nn4)cc3)ccc2C)CC1` and `COc1ccccc1N1CCN(C(=O)c2cc(S(=O)(=O)Nc3ccc(CCc4ccccc4)cc3)ccc2C)CC1` fall in the same range of IC50: 1 to 50 µM for the first, 1 to 50 µM for the second.

`COc1ccccc1N1CCN(C(=O)c2cc(S(=O)(=O)Nc3ccc(C)c4cccnc34)ccc2C)CC1` and `COc1ccccc1N1CCN(C(=O)c2cc(S(=O)(=O)Nc3cccc4cccnc34)ccc2C)CC1` fall in the same range of IC50: 1 to 50 µM for the first, 1 to 50 µM for the second.

`CCCCc1ccc(NS(=O)(=O)c2ccc(N3CCOCC3)c(C(=O)N3CCN(c4ccccc4OC)CC3)c2)cc1` and `CCCCc1ccc(NS(=O)(=O)c2ccc(N3CCCC3)c(C(=O)N3CCN(c4ccccc4OC)CC3)c2)cc1` fall in the same range of IC50: 1 to 50 µM for the first, 1 to 50 µM for the second.

Compared with `CCCCc1ccc(C(=O)Nc2ccc(C)c(C(=O)N3CCN(c4ccccc4OC)CC3)c2)cc1`, `CCCCc1ccc(OC(=O)Nc2ccc(C)c(C(=O)N3CCN(c4ccccc4OC)CC3)c2)cc1` is higher in IC50: 1 to 50 µM for the first, over 50 µM for the second. The first is the more potent here.

`Cc1ccc(S(=O)(=O)Nc2ccc(Cl)cc2)cc1C(=O)N1CCN(c2ccccn2)CC1` and `CCOc1ccc(NS(=O)(=O)c2ccc(C)c(C(=O)N3CCN(c4ccccn4)CC3)c2)cc1` cannot be ordered by IC50: over 50 µM for the first, over 50 µM for the second.

`COc1ccccc1N1CCN(C(=O)c2cccc(S(=O)(=O)Nc3ccccc3F)c2)CC1` and `COc1ccccc1N1CCN(C(=O)c2cccc(S(=O)(=O)Nc3ccccc3)c2)CC1` cannot be ordered by IC50: over 50 µM for the first, over 50 µM for the second.

First: O=C(c1cccc(S(=O)(=O)Nc2ccccc2F)c1)N1CCN(c2ccccc2)CC1
Second: CCCc1ccccc1NS(=O)(=O)c1cccc(C(=O)N2CCN(c3ccccc3)CC2)c1
The IC50 of the first is higher: over 50 µM for the first, 1 to 50 µM for the second. The second is the more potent here.

Compared with `COc1ccc(NS(=O)(=O)c2cccc(C(=O)N3CCN(c4ccccc4)CC3)c2)cc1`, `CC(C)(C)c1ccc(NS(=O)(=O)c2cccc(C(=O)N3CCN(c4ccccc4)CC3)c2)cc1` is lower in IC50: over 50 µM for the first, 1 to 50 µM for the second.

`COc1ccc(NS(=O)(=O)c2cccc(C(=O)N3CCN(c4ccccc4OC)CC3)c2)cc1` and `COc1ccccc1NS(=O)(=O)c1cccc(C(=O)N2CCCN(c3ccccc3OC)CC2)c1` cannot be ordered by IC50: over 50 µM for the first, over 50 µM for the second.

First: Cc1cc(F)ccc1NS(=O)(=O)c1cccc(C(=O)N2CCN(c3ccccn3)CC2)c1
Second: CCCCc1ccc(NS(=O)(=O)c2cccc(C(=O)N3CCN(c4ccccc4OC)CC3)c2)c(C(=O)O)c1
The IC50 of the first is higher: over 50 µM for the first, 1 to 50 µM for the second.

`CCCCc1ccc(NS(=O)(=O)c2cccc(C(=O)N3CCN(c4ncc(C)cc4Cl)CC3)c2)cc1` and `CCCCc1ccc(NS(=O)(=O)c2cccc(C(=O)N3CCN(c4ncc(C(F)(F)F)cc4Cl)CC3)c2)cc1` fall in the same range of IC50: 1 to 50 µM for the first, 1 to 50 µM for the second.

Compared with `COc1ccccc1N1CCN(C(=O)c2cccc(NS(=O)(=O)c3cccc4cccnc34)c2)CC1`, `COc1ccccc1N1CCN(C(=O)c2cc(S(=O)(=O)Nc3cccc4cc[nH]c34)ccc2C)CC1` is lower in IC50: over 50 µM for the first, 1 to 50 µM for the second.

`CCCCOc1ccc(NS(=O)(=O)c2ccc(C)c(C(=O)N3CCN(c4ccccc4OC)CC3)c2)cc1` and `CCCOc1ccc(NS(=O)(=O)c2ccc(C)c(C(=O)N3CCN(c4ccccc4OC)CC3)c2)cc1` fall in the same range of IC50: 1 to 50 µM for the first, 1 to 50 µM for the second.

`COc1ccccc1N1CCN(C(=O)c2cc(S(=O)(=O)Nc3ccc(OCC4CC4)cc3)ccc2C)CC1` and `COc1ccccc1N1CCN(C(=O)c2cc(S(=O)(=O)Nc3ccc(C)cc3)ccc2C)CC1` fall in the same range of IC50: 1 to 50 µM for the first, 1 to 50 µM for the second.

`CCc1ccc(NS(=O)(=O)c2ccc(C)c(C(=O)N3CCN(c4ccccc4OC)CC3)c2)cc1` and `CCCc1ccc(NS(=O)(=O)c2ccc(C)c(C(=O)N3CCN(c4ccccc4OC)CC3)c2)cc1` fall in the same range of IC50: 1 to 50 µM for the first, 1 to 50 µM for the second.

`CCCCc1ccc(NS(=O)(=O)c2ccc(C)c(C(=O)N3CCN(c4cccnc4OC)CC3)c2)cc1` and `CCCCc1ccc(NS(=O)(=O)c2ccc(C)c(C(=O)N3CCN(c4ccccc4OCC(C)C)CC3)c2)cc1` fall in the same range of IC50: 1 to 50 µM for the first, 1 to 50 µM for the second.

`CCCCc1ccc(NS(=O)(=O)c2ccc(F)c(C(=O)N3CCN(c4ccccc4OC)CC3)c2)cc1` and `CCCCc1ccc(NS(=O)(=O)c2ccc(Br)c(C(=O)N3CCN(c4ccccc4OC)CC3)c2)cc1` fall in the same range of IC50: 1 to 50 µM for the first, 1 to 50 µM for the second.

`CCCCc1ccc(NS(=O)(=O)c2ccc(C)c(C(=O)N3CCN(C(=O)NCC(C)C)CC3)c2)cc1` and `CCCCc1ccc(NS(=O)(=O)c2ccc(C)c(C(=O)N3CCN(C(=O)OCC)CC3)c2)cc1` fall in the same range of IC50: 1 to 50 µM for the first, 1 to 50 µM for the second.

`CCCCc1ccc(NS(=O)(=O)c2ccc(C)c(C(=O)N3CCN(Cc4cccc(C)c4)CC3)c2)cc1` and `CCCCc1ccc(NS(=O)(=O)c2ccc(C)c(C(=O)N3CCN(Cc4ccccc4C)CC3)c2)cc1` fall in the same range of IC50: 1 to 50 µM for the first, 1 to 50 µM for the second.

`CCCCc1ccc(NS(=O)(=O)c2ccc(C)c(C(=O)N3CCN(C(=O)C4CC4)CC3)c2)cc1` and `CCCCc1ccc(NS(=O)(=O)c2ccc(C)c(C(=O)N3CCN(C(=O)c4cscn4)CC3)c2)cc1` fall in the same range of IC50: 1 to 50 µM for the first, 1 to 50 µM for the second.

`CCCCc1ccc(NS(=O)(=O)c2ccc(C)c(C(=O)N3CCN(Cc4cc(C)c(C)cc4C)CC3)c2)cc1` and `CCCCc1ccc(NS(=O)(=O)c2ccc(C)c(C(=O)N3CCN(c4c(C)cccc4C)CC3)c2)cc1` fall in the same range of IC50: 1 to 50 µM for the first, 1 to 50 µM for the second.

`CCCCc1ccc(NS(=O)(=O)c2ccc(C)c(C(=O)N3CCN(CCCc4ccccc4)CC3)c2)cc1` and `CCCCc1ccc(NS(=O)(=O)c2ccc(C)c(C(=O)N3CCN(c4ccccc4OCCc4ccccc4)CC3)c2)cc1` fall in the same range of IC50: 1 to 50 µM for the first, 1 to 50 µM for the second.

`CCCCc1ccc(NS(=O)(=O)c2ccc(C)c(C(=O)N3CCN(c4cccc(C(F)(F)F)c4)CC3)c2)cc1` and `CCCCc1ccc(NS(=O)(=O)c2ccc(C)c(C(=O)N3CCN(c4ccc(OC)c(F)c4)CC3)c2)cc1` fall in the same range of IC50: 1 to 50 µM for the first, 1 to 50 µM for the second.

`CCCCc1ccc(NS(=O)(=O)c2ccc(C)c(C(=O)N3CCN(c4ccccc4OCc4ccccc4)CC3)c2)cc1` and `C=Cc1ccc(S(=O)(=O)Nc2ccc(CCCC)cc2)cc1C(=O)N1CCN(c2ccccc2OC)CC1` fall in the same range of IC50: 1 to 50 µM for the first, 1 to 50 µM for the second.

`CCOC(=O)COc1ccc(NS(=O)(=O)c2ccc(C)c(C(=O)N3CCN(c4ccccc4OC)CC3)c2)cc1` and `CCOC(=O)C(C)Oc1ccc(NS(=O)(=O)c2ccc(C)c(C(=O)N3CCN(c4ccccc4OC)CC3)c2)cc1` (centres unmarked) fall in the same range of IC50: 1 to 50 µM for the first, 1 to 50 µM for the second.

`CCCCc1ccc(NS(=O)(=O)c2ccc(C)c(C(=O)N3CCN(c4ccnc(N(C)C)c4)CC3)c2)cc1` and `CCCCc1ccc(NS(=O)(=O)c2ccc(C)c(C(=O)N3CCN(c4ccc(OC)c(OC)c4)CC3)c2)cc1` fall in the same range of IC50: 1 to 50 µM for the first, 1 to 50 µM for the second.

`CCCCc1ccc(NS(=O)(=O)c2ccc(C)c(C(=O)N3CCN(c4c(Cl)cccc4Cl)CC3)c2)cc1` and `C#CCc1ccc(S(=O)(=O)Nc2ccc(CCCC)cc2)cc1C(=O)N1CCN(c2ccccc2OC)CC1` fall in the same range of IC50: 1 to 50 µM for the first, 1 to 50 µM for the second.

`COC(=O)C(C)Nc1ccc(NS(=O)(=O)c2ccc(C)c(C(=O)N3CCN(c4ccccc4OC)CC3)c2)cc1` (centres unmarked) and `COCOc1ccc(NS(=O)(=O)c2ccc(C)c(C(=O)N3CCN(c4ccccc4C)CC3)c2)cc1` fall in the same range of IC50: 1 to 50 µM for the first, 1 to 50 µM for the second.

`COCCOCOc1ccc(NS(=O)(=O)c2ccc(C)c(C(=O)N3CCN(c4ccccc4C)CC3)c2)cc1` and `COc1ccccc1N1CCN(C(=O)c2cc(S(=O)(=O)Nc3ccc(C)c4cc[nH]c34)ccc2C)CC1` fall in the same range of IC50: 1 to 50 µM for the first, 1 to 50 µM for the second.

`CCCCc1ccc(NS(=O)(=O)c2ccc(C)c(C(=O)N3CCN(c4ccccc4OC)CC3)c2)c(N(C)C)c1` and `CCCCc1ccc(NS(=O)(=O)c2cc3c(c(C(=O)N4CCN(c5ccccc5OC)CC4)c2)OCCN3)cc1` fall in the same range of IC50: 1 to 50 µM for the first, 1 to 50 µM for the second.
